# Reference: patent publication US11173177B2, “Compounds for treatment of lipoprotein metabolism disorders” (Aarhus Universitet, priority 2016, dated 2021)
# Entries after “also recorded” stand apart in the source; their conditions may differ.
# Tests used:
# [1] = tested on: PCSK9; test: Heparin-sepharose binding assay (free PCSK9 by ELISA); parameters: species or system human; settings: 500-250 μg/ml, PCSK9 1 μg/ml, over night 4° C.
# Protocol: Compound (X) inhibition of PCSK9 binding to Heparin/Heparan sulfate was tested in a Heparin-sepharose binding assay. Heparin-sepharose beads (2 μl) were incubated with PCSK9 (1 μg/ml) with increasing concentrations of compound (X) (0-500 μg/ml) in a total volume of 150 μl 10 mM NaH2PO4. After over night rotation at 4° C., beads were pelleted and the concentration of non-precipitated PCSK9 (free PCSK9) in supernatant was evaluated by ELISA. The concentration of free PCSK9 in each sample was normalised to the PCSK9 level in a sample without Heparin-sepharose beads (input control). As positive control was included a sample with soluble heparin (5 mg/ml) (FIG. 16 A).
# Sucrose octasulfate (FIG. 21A) inhibition of PCSK9 binding to Heparin/Heparan sulfate was tested in a Heparin-sepharose binding assay. Heparin-sepharose beads (2 μl) were incubated with PCSK9 (1 μg/ml) and increasing concentrations of sucrose octasulfate (0-500 μg/ml) in a total volume of 150 μl 10 mM NaH2PO4. After over night rotation at 4° C., beads were pelleted and the concentration of non-precipitated PCSK9 (free PCSK9) in supernatant was evaluated by ELISA). Percent free PCSK9 was calculated with respect to the PCSK9 concentration in a sample without Heparin-sepharose beads (input control) (FIG. 21B).
# [2] = tested on: HepG2 cells; test: Uptake of Bodipy-labeled LDL particles in HepG2 cells; format: cell-based, human; settings: suramin 200 μg/ml overnight, then 4 hours 10 ng/ml Bodipy-LDL
# Protocol: FIG. 12: Bar graphs showing the relative fluorescence signal in HepG2 cells after overnight incubation with suramin (200 μg/ml) following 4 hours incubation with 10 ng/ml LDL particles labeled with fluorescence dye Bodipy. Inhibition of PCSK9 with suramin increases the uptake of LDL two-fold.
# [3] = tested on: LDLR in HepG2 cells; test: LDLR levels in HepG2 cells by Western blotting and densitometry; format: cell-based, human
# [4] = molecular target: PCSK9; test: Microscale Thermophoresis (MST) binding to PCSK9; parameters: species or system human; settings: 100 nM labelled PCSK9, PBS+0.05% Tween-20; for Kd: read-out: KD (affinity for PCSK9, MST)
# Protocol: Equilibrium binding affinities between PCSK9 and ligands (suramin, dextran sulfate 5000, dextran 5000, pentosan sulfate and S-dC-36) were assessed using Microscale Thermophoresis (MST) (Jerabek-Willemsen et al., 2011). PCSK9 was labeled using the MO-L003 Monolith Blue-NHS labeling kit (NanoTemper Technologies) and a labeling efficiency of 1:1 molar ratio of protein to dye was achieved. PCSK9 was applied at a final concentration of 100 nM. The unlabeled binding partner was titrated in 1:1 dilutions (in PBS+0.05% Tween-20) where the highest concentrations were 15.4 mM for suramin, 2.3 mM for dextran sulfate 5000, 2.3 mM for dextran 5000, 16.3 mM for pentosan sulfate and 250 μM for S-dC-36. MST measurements were performed in standard-treated capillaries (NanoTemper Technologies) on a Monolith NT.115 instrument (NanoTemper Technologies) using 20% LED and 80% MST power. Laser on and off times were 5 s and 35 s, respectively. Negative controls were performed using 100 nM of labelled PCSK9 in MST buffer in all 16 capillaries under the same conditions as mentioned above. Binding curves were obtained from the temperature-jump phase at 80% MST power for suramin, dextran sulfate 5000 and S-dC-36; and from the thermophoresis+temperature-jump phase at 80% MST power for pentosan sulfate. For each binding partner, the sigmoidal dose-response curves were fitted with GraphPad Prism 6 to yield an average KD value.
# [5] = tested on: liver LDLR; test: Liver LDLR levels in mice after intravenous PCSK9 injection (Western blot); format: in vivo
# Protocol: To test the effect of enzymatic removal of heparan sulfate GAGs on PCSK9 activity in vivo 10-12 week-old male BALB6/cJRj mice were infused with heparinase I (30 U) administered through a tail vein catheter 5 min prior injection of PCSK9 (10 μg). In control mice the heparinase injection and/or the PCSK9 injection were replaced with an injection of 0.9% saline. During heparinase infusion, mice were lightly anaesthetized with isoflurane continuously administered through a mask.
# Mice (BALB6/cJRj) were subjected to a single intravenous administration (tail vein) of 10 μg human recombinant PCSK9 alone or in combination with heparin (50 U). One hour post injection mice were sacrificed and liver tissues were collected.
# Mice (BALB6/cJRj) were subjected to a single intravenous (tail vein) administration of 3.2 μg compound (X) 60 minutes prior injection with PCSK9 (10 μg). PCSK9 induced degradation of liver LDLR was assessed 60 min post PCSK9 injection by Western blotting and quantified by densitometry (FIG. 16 C). Control mice were injected with NaCl or control inhibitor Evolocumab (200 μg), commercially available PCSK9 inhibitory monoclonal antibody (Amgen). LDLR levels were calculated with respect to LDLR level in mice injected with NaCl alone.
# [6] = tested on: PCSK9; test: BIACORE analysis of PCSK9 binding to heparin-albumin or albumin sensor chips; parameters: species or system human
# Protocol: BIACORE analysis using sensor chips coupled with either albumin (Sigma A4503) or heparin-albumin (Sigma H0403) were used to evaluate the interaction between PCSK9 and heparin. […] An interference assay using BIACORE analysis was implemented to assess the binding between compound (X) and PCSK9. Solutions of 100 nM PCSK9 was incubated with increasing concentrations of compound (X) (0 nM, 10 nM, 100 nM, 1 μM and 10 μM), the solutions were then infused over the sensor chip coupled with heparin-albumin.
# [7] = tested on: LDLR in HepG2 cells; test: LDLR levels in HepG2 cells by Western blotting and densitometry; format: cell-based, human; settings: for cellular LDLR, plateau compared to control: dose-dependent increase
# Protocol: In the heparin mimetic class of modified polysaccharides compounds dextran sulfate (FIG. 9 A-B) and pentosan (FIG. 9 D-E) were tested in a HepG2 based in vitro cell assay. After overnight incubation LDLR levels were evaluated by Western blotting showing a concentration dependent increase of LDLR upon treatment with dextran sulfate (0-200 μg/ml) with up to 3-fold up regulation of LDLR.
# Control cells were incubated without additives (negative control) or 500 μg/ml heparin (positive control). LDLR levels were calculated with respect to the level found in lysate of HepG2 cells incubated without additives.
# HepG2 cells were incubated with 0-200 μg/ml of heterogeneously sulfated hexamer or 18-mer oligosaccharides containing on average 1,3 sulfates per disaccharide. After over night incubation cells were harvested and the cellular level of LDLR was analyzed by Western blotting (FIG. 17 A) and quantified by densitometry (FIG. 17 B).
# [8] = oral dose; cited from earlier work
# [9] = tested on: cell surface PCSK9; test: Surface PCSK9 immunostaining of non-permeabilized HepG2 cells stably expressing PCSK9; format: cell-based, human; settings: heparinase I 1 h at 37° C.
# Protocol: We speculated that HSPG might be involved in the capture of PCSK9. Thus, we treated human hepatocyte-derived HepG2 cells stably expressing PCSK9 with heparinase I. The enzyme heparinase I cleaves heparan sulfate GAG chains at the 1,4 O-linkage between uronic acid and N-acetyl-D-glucosamine, thereby removing cell surface heparan sulfate chains.
# HepG2 cells stably transfected with PCSK9 were seeded at 50.000 cells per coverslip and incubated overnight before addition of heparinase I (Sigma Aldrich/H2519) in PBS (0,0002 UN/ml) or PBS alone. Cells were incubated for 1 h. at 37° C., before fixation in 4% paraformaldehyd and immunostaining of non-permeabilized cells with primary and secondary antibodies. Nuclei were visualized with Hoechst dye (Sigma Aldrich). Images were acquired on a Zeiss LSM780.
molecule,measurement,setting,value
O=S(=O)(O)OC[C@H]1O[C@@](COS(=O)(=O)O)(O[C@H]2O[C@H](COS(=O)(=O)O)[C@@H](OS(=O)(=O)O)[C@H](OS(=O)(=O)O)[C@H]2OS(=O)(=O)O)[C@@H](OS(=O)(=O)O)[C@@H]1OS(=O)(=O)O [Sucrose octasulfate],inhibition of PCSK9 precipitation with Heparin-sepharose,[1],inhibited PCSK9 precipitation with Heparin-sepharose as well as 5 mg/ml soluble heparin
Cc1ccc(C(=O)Nc2ccc(S(=O)(=O)O)c3cc(S(=O)(=O)O)cc(S(=O)(=O)O)c23)cc1NC(=O)c1cccc(NC(=O)Nc2cccc(C(=O)Nc3cc(C(=O)Nc4ccc(S(=O)(=O)O)c5cc(S(=O)(=O)O)cc(S(=O)(=O)O)c45)ccc3C)c2)c1 [suramin],uptake of fluorescently labelled LDL particles,[2],increased cellular uptake of fluorescently labelled LDL particles; also recorded: two-fold
same,LDLR level compared with cells incubated with statins,"[3]; 100 μM, 24 and 48 hours, vs mevastatin and simvastatin",higher level of LDLR
same,increase in LDLR,"[3]; suramin 0-200 μg/ml, 24 hour",up to fifteen-fold increase in LDLR
same,Kd,[4],190 µM
same,level of liver LDLR compared to mice injected with PCSK9 alone,"[5]; co-injected with PCSK9 (10 μg), heparin 50 U or suramin 300 μg, 1 hour",significantly higher level of LDLR
albumin: albumin (Sigma A4503) control sensor chip,PCSK9 binding to control sensor chip,[6]; sensor chip coupled with albumin,no binding was observed
dextran,"KD (affinity for PCSK9, MST)",[4],no affinity for PCSK9
dextran sulfate,Kd,[4],180 µM
same,up regulation of LDLR,"[7]; 0-200 μg/ml, overnight",up to 3 fold
same,cellular level of LDLR,"[7]; 200 μg/ml, 24 hour",potently increase the cellular level of LDLR
same,"cellular LDLR, plateau compared to control",[7],around 400%
heparin-albumin: heparin-albumin (Sigma H0403) coupled to sensor chip,Kd,"[6]; Example 20 text, read-out: affinity constant of PCSK9 binding",0.7 nM
pentosan sulfate,"absorption from the digestive tract, median time after ingestion",[8],2 h
same,Kd,[4],381 µM
same,increase in LDLR,"[7]; 50-200 μg/ml, 24 hour / overnight",4 fold
same,"cellular LDLR, plateau compared to control",[7],around 400%
phosphorothioate oligodeoxycytidine [S-dC-36],cellular LDLR levels / PCSK9 inhibitory effect,"[3]; 0-5.0 μM, 24 hour",potent inhibitory effects; also recorded: concentration dependent increase in cellular receptor levels
"Evolocumab: commercially available PCSK9 inhibitory monoclonal antibody (Amgen) (antibody, chains of the INN, looked up, V domains shown) VH: EVQLVQSGAEVKKPGASVKVSCKASGYTLTSYGISWVRQAPGQGLEWMGWVSFYNGNTNYAQKLQGRGTMTTDPSTSTAYMELRSLRSDDTAVYYCARGYGMDVWGQGTTVTVSS VL: ESALTQPASVSGSPGQSITISCTGTSSDVGGYNSVSWYQQHPGKAPKLMIYEVSNRPSGVSNRFSGSKSGNTASLTISGLQAEDEADYYCNSYTSTSMVFGGGTKLTVL",decrease of liver LDLR level after PCSK9 injection,"[5]; inhibitor i.v. 60 min prior PCSK9 (10 μg), compound (X) 0.13 mg/kg, Evolocumab 8 mg/kg, PCSK9 without inhibitor: 50% decrease",no decrease was observed
"heparinase I: enzyme that cleaves heparan sulfate GAG chains (Sigma Aldrich/H2519) (protein, UniProt Q05819 22-384, looked up) Heparin lyase I: QQKKSGNIPYRVNVQADSAKQKAIIDNKWVAVGINKPYALQYDDKLRFNGKPSYRFELKAEDNSLEGYAAGETKGRTELSYSYATTNDFKKFPPSVYQNAQKLKTVYHYGKGICEQGSSRSYTFSVYIPSSFPDNATTIFAQWHGAPSRTLVATPEGEIKTLSIEEFLALYDRMIFKKNIAHDKVEKKDKDGKITYVAGKPNGWKVEQGGYPTLAFGFSKGYFYIKANSDRQWLTDKADRNNANPENSEVMKPYSSEYKTSTIAYKMPFAQFPKDCWITFDVAIDWTKYGKEANTILKPGKLDVMMTYTKNKKPQKAHIVNQQEILIGRNDDDGYYFKFGIYRVGNSTVPVTYNLSGYSETAR",intensity of surface PCSK9 staining,[9],marked decrease in the intensity of surface PCSK9 staining
same,PCSK9 induced degradation of liver LDLR,"[5]; heparinase I (30 U) infused 5 min prior PCSK9 (10 μg), 1 hour",completely protected; also recorded: completely inhibits
